In experiment [1] the test system is rat primary hippocampal neurons injured with Aβ 1-42. In words: Number of synapses (PSD95/SYN overlap) in primary culture of hippocampal neurons injured with Aβ 1-42. Particulars: from 5 nM to 1 μM; Aβ 1-42 injured hippocampal neurons; Example 1. The experiment is classed as cell-based. As to the method:
Rat hippocampal neurons were cultured as described by Callizot et al. (2013) J. Neurosci. Res. 91706-716. Pregnant female rats of 17 days gestation (Rats Wistar; Janvier Labs France) were killed using a deep anesthesia with CO2 chamber followed by a cervical dislocation. Then, fetuses were removed from the uterus and immediately placed in ice-cold L15 Leibovitz medium with a 2% penicillin (10,000 U/ml) and streptomycin (10 mg/ml) solution (PS) and 1% bovine serum albumin (BSA). Hippocampal neurons were treated for 20 min at 37° C. with a trypsin-EDTA solution at a final concentration of 0.05% trypsin and 0.02% EDTA. The dissociation was stopped by adding Dulbecco's modified Eagle's medium (DMEM) with 4.5 g/l of glucose, containing DNAse I grade 11 (final concentration 0.5 mg/ml) and 10% fetal calf serum (FCS). Cells were mechanically dissociated by three forced passages through the tip of a 10-ml pipette and then centrifuged at 515×g for 10 min at 4° C. The supernatant was discarded, and the pellet was resuspended in a defined culture medium consisting of Neurobasal medium with a 2% solution of B27 supplement, 2 mmol/l of L-glutamine, 2% of PS solution, and 10 ng/ml of brain-derived neurotrophic factor (BDNF). Viable cells were counted in a Neubauer cytometer, using the trypan blue exclusion test. […] The medium was changed every 2 days.
The hippocampal neurons were exposed with Aβ solutions (see below) after 17 days of culture. The Aβ1-42 preparation was done following the procedure described by Callizot et al. (2013) J. Neurosci. Res. 91706-716. Briefly, Aβ1-42 peptide was dissolved in the defined culture medium mentioned above, at an initial concentration of 40 μM. This solution was gently agitated for 3 days at 37° C. in the dark and immediately used after being properly diluted in culture medium to the concentrations used (20 μM (plate 1) or 2.5 μM (plate 2) corresponding to 2 μM or 0.25 μM of oligomers (AβO) respectively).
Donecopride fumarate was solved in culture medium and preincubated 1 h before Aβ application. Aβ1-42 preparation was added to a final concentration of 20 or 2.5 μM (=2 μM or 0.25 μM of AβO, evaluated by automatic Western Blot) diluted in control medium in presence of Donecopride.
Donecopride fumarate (Donecopride) was tested on one culture in a 96 well plate (6 wells per conditions). The compound was preincubated one hour before […] application. The following conditions were assessed:
After permeabilization with 0.1% of saponin, cells were incubated for 2 h with:
a) mouse monoclonal antibody anti post synaptic density 95 kDa (PSD95) at a dilution of 1/100 in PBS containing 1% fetal calf serum and 0.1% of saponin.
b) Rabbit polyclonal antibody anti-synaptophysin (SYN) at the dilution of 1/100 in PBS containing 1% fetal calf serum and 0.1% of saponin.
For each condition, 40 pictures per well were taken using ImageXpress (Molecular Devices) with 40× magnification. All images were taken with the same acquisition parameters.
Synapses evaluation was performed automatically by using Custom module editor (Molecular Devices).
Total number of synapses (overlapping between PSD95/SYN).
To assess the formation of synapses, the distribution of PSD-95, a post-synaptic marker, and synaptophysin, a pre-synaptic marker, was studied. A structure positive for both PSD-95 and synaptophysin staining was considered as a synapse.
Rat hippocampal neurons were cultured as described by Callizot et al. (2013) J. Neurosci. Res. 91:706-716.

Experiment [2] concerns 5XFAD mice. Nature of the experiment: Novel object recognition test in chronically treated 5XFAD mice. In kind it is in vivo, mouse. Particulars: 5XFAD females, 1 mg/kg twice a week for 3 months. As to the method:
(§1) 5XFAD mice received chronic treatments with drugs or vehicle according to 2 different protocols. In each experiment, drugs or vehicle solution were administered i.p. twice a week (1 mg/kg). In “Protocol 1”, mice (n=6-7 mice per group) were treated with compounds for two months, from 2 to 4 months of age. In “Protocol 2”, mice (n=7) were treated with compounds for three months, from 1 month to 4 months of age. At the end of each protocol, mice were anesthetized with a mixture of 100 mg/kg ketamine and 10 mg/kg xylazine in saline solution and perfused transcardially with PBS. Brains were quickly isolated on ice, the olfactory bulbs and cerebellum removed and the two hemispheres divided. One hemisphere was frozen on dry ice and stored at −80° C. for biochemical analysis, while the other was post-fixed in 4% PFA for immunohistochemistry (IHC).
(§2) 28 female 5XFAD mice (C57BL/6J genetic background) were used in this study. Mice received vehicle or compounds (1 mg/kg) i.p., twice a week for three months, from 1 to 4 months of age.

In experiment [3] the test system is 5XFAD mice. In words: Aβ42 concentration in cerebrospinal fluid of chronically treated 5XFAD mice. The experiment is classed as in vivo, mouse. The conditions noted are these: 1 mg/kg twice a week for 3 months, versus controls. As to the method: as §1, §2
Experiment [4] relates to 5XFAD mice. Nature of the experiment: Amyloid plaque number (thioflavin T staining) in brain sections of 5XFAD mice. The experiment is classed as in vivo, mouse. Particulars: 1 mg/kg twice a week for 3 months, versus controls. As to the method:
as §1
Thirty-micrometer-thick sections were cut using a vibratome (Microm HM 650V, Thermo Scientific, Saint Herblain, France) and stored in cryoprotectant medium at −20° C. […]
Images were acquired with an Axiolmager Z1 microscope (Carl Zeiss S.A.S., Marly le Roi, France). […] GFAP expression was quantified using Image J software and results are expressed as area fractions. […]

The subject of experiment [5] is 5XFAD mice. Nature of the experiment: Astrogliosis (GFAP staining) in brain sections of 5XFAD mice. In kind it is in vivo, mouse. The conditions noted are these: 1 mg/kg twice a week for 3 months, versus controls. As to the method:
as §1
Thirty-micrometer-thick sections were cut using a vibratome (Microm HM 650V, Thermo Scientific, Saint Herblain, France) and stored in cryoprotectant medium at −20° C. For the labeling of amyloid plaques, free-floating tissue sections of frontal cortex, hippocampus and entorhinal cortex (coordinates from the bregma: frontal cortex=1.98 mm, hippocampus=−1.94 mm, entorhinal cortex=−3.08 mm) were extensively washed in PBS and then incubated in blocking solution (PBS; 3% BSA; 0.1% Triton X-100) for 1 h. Sections were stained with Hoechst dye (1:1000, Life Technologies, Saint Aubin, France) for 15 minutes to detect cell nuclei and then with freshly prepared thioflavin T solution (#T3516-5G, Sigma-Aldrich) (final concentration: 0.01 mg/ml in blocking buffer) for 15 minutes. After washing in 70% ethanol for 5 minutes, samples were mounted on poly-lysine slides with coverslips. For GFAP (glial fibrillary acidic protein) staining, free-floating brain sections were blocked as before and incubated with polyclonal rabbit anti-GFAP (1:1000, Z0334, Dako, Les Ullis, France) at 4° C. overnight. After thioflavin T staining and washing with 70% ethanol, the secondary Alexafluor 594 goat anti-rabbit antibody (1:1000, A11012, Life Technologies) was added for 2 h. PBS washes and mounting were performed as described before.
Images were acquired with an Axiolmager Z1 microscope (Carl Zeiss S.A.S., Marly le Roi, France). Analysis of thioflavin T staining was performed blindly and data are presented as the mean number of particles per mm^2 in two to three tissue sections from the same brain area/animal (Image J software). GFAP expression was quantified using Image J software and results are expressed as area fractions.
as §2

Take `COc1cc(N)c(Cl)cc1C(=O)CCC1CCN(CC2CCCCC2)CC1` [Donecopride]: in experiment [1], the “Preservation of the number of synapses” value is listed as “preserve the number of synapses, on a dose dependent manner”. Moreover, the “Total exploration time during the training session (NOR test)” value in the experiment with 5XFAD mice [2] is listed as “did not differ significantly”. Moreover, the “Recognition memory: time exploring novel versus familiar object (NOR test)” value with 5XFAD mice [2] (24 h interval between training and test) is given as “able to prevent memory alteration”. For the same molecule, the “Aβ42 concentration in cerebrospinal fluid (CSF)” value with 5XFAD mice [3] is “not significantly different compared to controls”. Further, in the experiment on 5XFAD mice [4], the “Amyloid plaque number in hippocampus” value was “not significantly different compared to controls”. Moreover, in the experiment with 5XFAD mice [5], the “GFAP staining in frontal cortex” value was “not significantly different compared to controls” and the “GFAP staining in hippocampus” value is “not significantly different compared to controls”.

Source of the values: US20210338647A1, “Combination of Acetylcholinesterase Inhibitor and 5-HT4 Receptor Agonist As Neuroprotective Agent In the Treatment of Neurodegenerative Diseases” (UNIVERSITE DE CAEN NORMANDIE, priority 2018, published 2021).
